Reference: US6914045B2, “Glycopeptide antibiotics” (Wyeth Holdings Corporation, priority 2001, dated 2005)
In brackets after ≈: the same amount, converted by molar mass.

Legend:
Test in all cases: in vitro antibacterial evaluation, MIC by broth dilution
Assay type in all cases: cell-based
Staphylococcus sp. = conditions: broth dilution, 18 hours at 35° C.; for MIC Staphylococcus aureus (ATCC 29213): strain ATCC 29213; for MIC Staphylococcus aureus (GC 1131): strain GC 1131; for MIC Staphylococcus aureus (GC 3051): strain GC 3051; for MIC Staphylococcus aureus (GC 3053): strain GC 3053; for MIC Staphylococcus aureus (GC 4541): strain GC 4541; for MIC Staphylococcus aureus (GC 4542): strain GC 4542; for MIC Staphylococcus aureus-SMITH (GC 4543): strain GC 4543; for MIC Staphylococcus aureus (GC 4544): strain GC 4544; for MIC Staphylococcus aureus (GC 4545): strain GC 4545; for MIC Staphylococcus haemolyticus (GC 4546): strain GC 4546; for MIC Coagulase Negative Staphylococcus (GC 4547): strain GC 4547; for MIC Coagulase Negative Staphylococcus (GC 4548): strain GC 4548; for MIC Coagulase Negative Staphylococcus (GC 4549): strain GC 4549; for MIC Coagulase Negative Staphylococcus (GC 4551): strain GC 4551; for MIC Coagulase Negative Staphylococcus (GC 6257): strain GC 6257
Protocol: (§1) Methods for in vitro Antibacterial Evaluation (Table 1)
(§2) The minimum inhibitory concentration (MIC), the lowest concentration of the antibiotic which inhibits growth of the test organism, is determined by the broth dilution method using Muller-Hinton II […] (Baltimore Biological Laboratories) following the recommendations of the National Committee for Clinical Laboratory Standards [Methods for dilution antimicrobial susceptibility tests for bacteria that grow aerobically, approved standard M7-A2, National Committee for Clinical Laboratory Standards, Villanova, Pa.].
(§3) An inoculum level of 5×10^5 CFU/mL, and a range of antibiotic concentrations (64-0.06 μg/mL) is used. […] The test organisms include a spectrum of Gram-positive bacteria comprised of Staphylococcus sp., Streptococcus sp. and Enterococcus sp. These organisms include recent clinical isolates that are resistant to methicillin, penicillin and/or vancomycin.

Streptococcus sp. = conditions: broth dilution, 18 hours at 35° C.; for MIC Streptococcus pneumoniae (ATCC 6301): strain ATCC 6301; for MIC Streptococcus pneumoniae (GC 1894): strain GC 1894; for MIC Streptococcus pyogenes (GC 4563): strain GC 4563; for MIC Streptococcus agalactiae (GC 4564): strain GC 4564; for MIC Streptococcus pneumoniae (GC 4565): strain GC 4565
Protocol: as §1, §2, §3

Enterococcus sp. = conditions: broth dilution, 18 hours at 35° C.; for MIC Enterococcus faecalis (ATCC 29212): strain ATCC 29212; for MIC Enterococcus faecalis (GC 2242): strain GC 2242; for MIC Enterococcus faecium (GC 2243): strain GC 2243; for MIC Enterococcus faecalis (GC 2691): strain GC 2691; for MIC Enterococcus faecalis (GC 3059): strain GC 3059; for MIC Enterococcus faecalis (GC 4552): strain GC 4552; for MIC Enterococcus faecalis (GC 4553): strain GC 4553; for MIC Enterococcus faecalis (GC 4554): strain GC 4554; for MIC Enterococcus faecium (GC 4556): strain GC 4556; for MIC Enterococcus faecium (GC 4557): strain GC 4557; for MIC Enterococcus avium (GC 4558): strain GC 4558; for MIC Enterococcus faecalis (GC 6189): strain GC 6189
Protocol: as §1, §2, §3

Escherichia coli = conditions: broth dilution, 18 hours at 35° C.; for MIC Escherichia coli (ATCC 25922): strain ATCC 25922; for MIC Escherichia coli (GC 4559): strain GC 4559; for MIC Escherichia coli (GC 4560): strain GC 4560
Procedure, shortened: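 Broth dilution MIC per NCCLS M7-A2 in Mueller-Hinton II medium, inoculum 5×10^5 CFU/mL, antibiotic range 64-0.06 μg/mL. MIC taken as lowest concentration inhibiting growth.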

| Compound | MIC Staphylococcus aureus (ATCC 29213) (Staphylococcus sp.) [µg/mL] | MIC Staphylococcus aureus (GC 1131) (Staphylococcus sp.) [µg/mL] | MIC Staphylococcus aureus (GC 3051) (Staphylococcus sp.) [µg/mL] | MIC Staphylococcus aureus (GC 3053) (Staphylococcus sp.) [µg/mL] | MIC Staphylococcus aureus (GC 4541) (Staphylococcus sp.) [µg/mL] | MIC Staphylococcus aureus (GC 4542) (Staphylococcus sp.) [µg/mL] | MIC Staphylococcus aureus-SMITH (GC 4543) (Staphylococcus sp.) [µg/mL] | MIC Staphylococcus aureus (GC 4544) (Staphylococcus sp.) [µg/mL] | MIC Staphylococcus aureus (GC 4545) (Staphylococcus sp.) [µg/mL] | MIC Staphylococcus haemolyticus (GC 4546) (Staphylococcus sp.) [µg/mL] | MIC Coagulase Negative Staphylococcus (GC 4547) (Staphylococcus sp.) [µg/mL] | MIC Coagulase Negative Staphylococcus (GC 4548) (Staphylococcus sp.) [µg/mL] | MIC Coagulase Negative Staphylococcus (GC 4549) (Staphylococcus sp.) [µg/mL] | MIC Coagulase Negative Staphylococcus (GC 4551) (Staphylococcus sp.) [µg/mL] | MIC Coagulase Negative Staphylococcus (GC 6257) (Staphylococcus sp.) [µg/mL] | MIC Streptococcus pneumoniae (ATCC 6301) (Streptococcus sp.) [µg/mL] | MIC Streptococcus pneumoniae (GC 1894) (Streptococcus sp.) [µg/mL] | MIC Streptococcus pyogenes (GC 4563) (Streptococcus sp.) [µg/mL] | MIC Streptococcus agalactiae (GC 4564) (Streptococcus sp.) [µg/mL] | MIC Streptococcus pneumoniae (GC 4565) (Streptococcus sp.) [µg/mL] | also measured |
| --- | --- | --- | --- | --- | --- | --- | --- | --- | --- | --- | --- | --- | --- | --- | --- | --- | --- | --- | --- | --- | --- |
| CC(c1ccccc1)C1NC(=O)CNC(=O)C(CO)NC(=O)C(C(O)C2CNC(=N)N2C2OC(CO)C(O)C(O)C2O)NC(=O)C(C(O)C2CNC(=N)N2)NC(=O)C(Cc2ccc3oc(-c4cccc(F)c4)nc3c2)NC1=O (stereo not drawn) [Example 30, Cyclo[3-[2-(3-fluorophenyl)-1,3-benzoxazol-5-yl]alanyl-3-(2-iminoimidazolidin-4-yl)seryl-3-(3-hexopyranosyl-2-iminoimidazolidin-4-yl)serylserylglycyl-β-methylphenylalanyl]] | 8 (≈ 7.34 µM) | 8 (≈ 7.34 µM) | 16 (≈ 14.7 µM) | 16 (≈ 14.7 µM) | 16 (≈ 14.7 µM) | 8 (≈ 7.34 µM) | 8 (≈ 7.34 µM) | 8 (≈ 7.34 µM) | 8 (≈ 7.34 µM) | 4 (≈ 3.67 µM) | 8 (≈ 7.34 µM) | 4 (≈ 3.67 µM) | 16 (≈ 14.7 µM) | 8 (≈ 7.34 µM) | 4 (≈ 3.67 µM) | 8 (≈ 7.34 µM) | 16 (≈ 14.7 µM) | 4 (≈ 3.67 µM) | 8 (≈ 7.34 µM) | 16 (≈ 14.7 µM) | MIC Enterococcus faecalis (ATCC 29212) (Enterococcus sp.): 64 µg/mL (≈ 58.7 µM); MIC Enterococcus faecalis (GC 2242) (Enterococcus sp.): 32 µg/mL (≈ 29.4 µM); MIC Enterococcus faecium (GC 2243) (Enterococcus sp.): 32 µg/mL (≈ 29.4 µM); MIC Enterococcus faecalis (GC 2691) (Enterococcus sp.): 32 µg/mL (≈ 29.4 µM); MIC Enterococcus faecalis (GC 3059) (Enterococcus sp.): 64 µg/mL (≈ 58.7 µM); MIC Enterococcus faecalis (GC 4552) (Enterococcus sp.): 64 µg/mL (≈ 58.7 µM); MIC Enterococcus faecalis (GC 4553) (Enterococcus sp.): 16 µg/mL (≈ 14.7 µM); MIC Enterococcus faecalis (GC 4554) (Enterococcus sp.): 64 µg/mL (≈ 58.7 µM); MIC Enterococcus faecium (GC 4556) (Enterococcus sp.): 64 µg/mL (≈ 58.7 µM); MIC Enterococcus faecium (GC 4557) (Enterococcus sp.): 8 µg/mL (≈ 7.34 µM); MIC Enterococcus avium (GC 4558) (Enterococcus sp.): 16 µg/mL (≈ 14.7 µM); MIC Enterococcus faecalis (GC 6189) (Enterococcus sp.): 32 µg/mL (≈ 29.4 µM); MIC Escherichia coli (ATCC 25922) (Escherichia coli): 32 µg/mL (≈ 29.4 µM); MIC Escherichia coli (GC 4559) (Escherichia coli): 32 µg/mL (≈ 29.4 µM); MIC Escherichia coli (GC 4560) (Escherichia coli): 8 µg/mL (≈ 7.34 µM) |
| CC(c1ccccc1)C1NC(=O)CNC(=O)C(CO)NC(=O)C(C(O)C2CNC(=N)N2C2OC(CO)C(O)C(O)C2O)NC(=O)C(C(O)C2CNC(=N)N2)NC(=O)C(Cc2ccc3oc(-c4ccc(OCc5ccccc5)cc4)nc3c2)NC1=O (stereo not drawn) [Example 31, Cyclo[3-[2-[4-(phenylmethoxy)phenyl]-1,3-benzoxazol-5-yl]alanyl-3-(2-iminoimidazolidin-4-yl)seryl-3-(3-hexopyranosyl-2-iminoimidazolidin-4-yl)serylserylglycyl-β-methyl-phenylalanyl]] | 16 (≈ 13.6 µM) | 16 (≈ 13.6 µM) | 16 (≈ 13.6 µM) | 16 (≈ 13.6 µM) | 16 (≈ 13.6 µM) | 8 (≈ 6.79 µM) | 16 (≈ 13.6 µM) | 16 (≈ 13.6 µM) | 16 (≈ 13.6 µM) | 8 (≈ 6.79 µM) | 8 (≈ 6.79 µM) | 8 (≈ 6.79 µM) | 16 (≈ 13.6 µM) | 16 (≈ 13.6 µM) | 4 (≈ 3.39 µM) | 16 (≈ 13.6 µM) | 32 (≈ 27.2 µM) | 8 (≈ 6.79 µM) | 32 (≈ 27.2 µM) | 64 (≈ 54.3 µM) | MIC Enterococcus faecalis (ATCC 29212) (Enterococcus sp.): 64 µg/mL (≈ 54.3 µM); MIC Enterococcus faecalis (GC 2242) (Enterococcus sp.): 64 µg/mL (≈ 54.3 µM); MIC Enterococcus faecium (GC 2243) (Enterococcus sp.): 32 µg/mL (≈ 27.2 µM); MIC Enterococcus faecalis (GC 2691) (Enterococcus sp.): 64 µg/mL (≈ 54.3 µM); MIC Enterococcus faecalis (GC 3059) (Enterococcus sp.): 128 µg/mL (≈ 109 µM); MIC Enterococcus faecalis (GC 4552) (Enterococcus sp.): 128 µg/mL (≈ 109 µM); MIC Enterococcus faecalis (GC 4553) (Enterococcus sp.): 16 µg/mL (≈ 13.6 µM); MIC Enterococcus faecalis (GC 4554) (Enterococcus sp.): 128 µg/mL (≈ 109 µM); MIC Enterococcus faecium (GC 4556) (Enterococcus sp.): 4 µg/mL (≈ 3.39 µM); MIC Enterococcus faecium (GC 4557) (Enterococcus sp.): 4 µg/mL (≈ 3.39 µM); MIC Enterococcus avium (GC 4558) (Enterococcus sp.): 8 µg/mL (≈ 6.79 µM); MIC Enterococcus faecalis (GC 6189) (Enterococcus sp.): 64 µg/mL (≈ 54.3 µM); MIC Escherichia coli (ATCC 25922) (Escherichia coli): >128 µg/mL; MIC Escherichia coli (GC 4559) (Escherichia coli): >128 µg/mL; MIC Escherichia coli (GC 4560) (Escherichia coli): 32 µg/mL (≈ 27.2 µM) |
